From ChEMBL document CHEMBL1133958, “Derivatives of (2R,3R,4S)-2-aminomethylpyrrolidine-3,4-diol are selective alpha-mannosidase inhibitors” (Bioorg Med Chem Lett, 2001)
pKi: −log10 of the molar value. Active and inactive are the calls of the source. The rule behind the calls is not given here.

Columns and labels:
Saccharomyces cerevisiae = assay: Percentage inhibition of Alpha-glucosidase from Baker yeast (isomaltase) at 1 mM
[1] = target: Beta-glucosidase A (Caldicellulosiruptor saccharolyticus) (UniProt P10482); assay: Percentage inhibition of Beta-Glucosidase from Caldocellum saccharol. at 1 mM
Sequence of Beta-glucosidase A (Caldicellulosiruptor saccharolyticus) (P10482 whole entry): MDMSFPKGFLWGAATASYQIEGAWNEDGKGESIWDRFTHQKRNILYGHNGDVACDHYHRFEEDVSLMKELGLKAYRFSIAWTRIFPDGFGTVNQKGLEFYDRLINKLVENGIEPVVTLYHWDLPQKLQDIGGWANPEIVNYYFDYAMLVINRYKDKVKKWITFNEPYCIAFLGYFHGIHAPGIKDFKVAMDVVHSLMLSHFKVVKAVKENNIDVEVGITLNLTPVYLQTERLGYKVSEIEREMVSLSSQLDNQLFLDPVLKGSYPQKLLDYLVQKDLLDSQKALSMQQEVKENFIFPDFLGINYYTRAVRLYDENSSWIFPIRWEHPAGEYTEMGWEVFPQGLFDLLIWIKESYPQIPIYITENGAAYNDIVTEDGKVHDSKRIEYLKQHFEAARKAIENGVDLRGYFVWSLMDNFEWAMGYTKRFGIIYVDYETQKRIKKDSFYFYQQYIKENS

Beta-glucosidase A = Beta-glucosidase A (Caldicellulosiruptor saccharolyticus, UniProt P10482); assay: Inhibitory activity towards Beta-Glucosidase from Caldocellum saccharol
Sequence of Beta-glucosidase A (P10482 whole entry): as above

[2] = target: T1, Glucoamylase 1 (Rhizopus oryzae) (UniProt P07683); assay: Percentage inhibition of Alpha-glucosidase from Rhizopus mold (amyloglucosidase) at 1 mM concentration; No inhibition; settings: Rhizopus arrhizus
T1 sequence (whole entry): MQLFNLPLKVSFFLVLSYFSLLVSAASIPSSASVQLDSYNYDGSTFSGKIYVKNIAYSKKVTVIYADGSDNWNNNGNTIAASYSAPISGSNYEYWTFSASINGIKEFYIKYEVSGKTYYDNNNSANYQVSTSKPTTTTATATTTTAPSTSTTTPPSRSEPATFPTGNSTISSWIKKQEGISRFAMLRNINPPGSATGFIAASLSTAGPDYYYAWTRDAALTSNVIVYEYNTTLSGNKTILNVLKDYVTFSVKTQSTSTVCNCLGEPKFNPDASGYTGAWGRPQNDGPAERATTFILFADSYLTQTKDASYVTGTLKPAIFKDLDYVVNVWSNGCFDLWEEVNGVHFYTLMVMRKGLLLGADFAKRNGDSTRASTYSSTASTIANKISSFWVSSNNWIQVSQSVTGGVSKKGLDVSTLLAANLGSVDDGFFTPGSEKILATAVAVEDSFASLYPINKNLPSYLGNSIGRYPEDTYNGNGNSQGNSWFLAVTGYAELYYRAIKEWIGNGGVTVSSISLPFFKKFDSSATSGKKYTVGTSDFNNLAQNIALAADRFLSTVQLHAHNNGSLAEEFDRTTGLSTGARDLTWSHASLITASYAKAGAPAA

[3] = Percentage inhibition of Beta-galactosidase from Aspergillus oryzae at 1 mM; No inhibition
[4] = test system: Alpha-mannosidase (Prunus dulcis); assay: Percentage inhibition of Alpha-mannosidase from Almond at 1 mM

OC1CNC(CNCC2CCN(Cc3ccccc3)CC2)C1O (stereo unspecified)
inhibition (Saccharomyces cerevisiae): 90%
inhibition [1]: 76%
pKi (Beta-glucosidase A): 3.92
inhibition [2]: inactive
inhibition [3]: inactive
inhibition [4]: 59%
